Experimental data taken from patent publication US20230345936A1, “NOVEL ENVIRONMENT-FRIENDLY HERBICIDE” (KUNMING INSTITUTE OF BOTANY, CHINESE ACADEMY OF SCIENCES, priority 2022, published 2023).

How the values were obtained:
[1] = test system: Eupatorium adenophorum; assay: Spraying herbicide aqueous solution on Eupatorium adenophorum plants (contact killing); type: in vivo
Experimental: (1) 25 mL of the methyl 4-hydroxyphenylacetate herbicide aqueous solution prepared in Example 1 was taken and sprayed evenly on the surface of Eupatorium adenophorum plants.
When not sprayed, the Eupatorium adenophorum plant had one pair of top leaves, one head inflorescence, one pair of tender leaves under the top leaves, and three pairs of mature leaves. The plant was healthy and vigorous, with a height of 40-50 cm. […] The uppermost one pair of mature leaves among the three pairs of mature leaves withered in a large area. The lower two pairs of mature leaves began to wither from the edge inwards, and the axillary buds also died. These deaths were irreversible.
(2) 25 mL of the methyl 4-hydroxyphenylacetate herbicide aqueous solution prepared in Example 3 was taken and sprayed evenly on the surface of Eupatorium adenophorum plants.
When not sprayed, the Eupatorium adenophorum plant had one pair of top leaves, one head inflorescence, one pair of tender leaves under the inflorescence, and four pairs of mature leaves. The plant was healthy and vigorous, with a height of 40-50 cm.
(5) 25 mL of the methyl 4-hydroxyphenylacetate herbicide aqueous solutions prepared in Comparative Examples 1 to 2 were taken and sprayed evenly on the surface of Eupatorium adenophorum plants.

[2] = Dissolution of methyl 4-hydroxyphenylacetate in 15% ethanol solution; type: physicochemical; settings: 1.82787 g in 50 mL of 15% ethanol solution
Experimental: The methyl 4-hydroxyphenylacetate was purchased on the market. 1.82787 g of methyl 4-hydroxyphenylacetate was weighed, and added with 50 mL of a 15% absolute ethanol solution for dissolution.

solubility in 15% absolute ethanol solution [2]: could not be sufficiently dissolved
Structure (SMILES): COC(=O)Cc1ccc(O)cc1 [methyl 4-hydroxyphenylacetate, Methyl 4-hydroxyphenylacetate]
effect on Eupatorium adenophorum at use concentration greater than 150 mmol/L ([1]; sprayed once): contact killing effect
time after spraying until old leaves / plant are basically withered ([1]; use concentration greater than 150 mmol/L): 4 to 5 days
